These results are taken from patent US20150258043A1, “USE OF SPHINGOID LONG CHAIN BASES AND THEIR ANALOGS IN TREATING AND PREVENTING BACTERIAL INFECTIONS” (YEDA RESEARCH AND DEVELOPMENT CO. LTD., priority 2012, published 2015).

What is called EC50 is the concentration at which the effect is half-maximal.

The conditions of series [1]: superscript reference mark; cited from earlier work.
The subject of another series is P. aeruginosa strain 762. As to the kind of experiment: Effect of LCBs on P. aeruginosa growth in vitro (colony counts). The format is cell-based, Pseudomonas aeruginosa. The following applies: for inhibition of P. aeruginosa growth in vitro (in words): concentrations up to 50 μM. The procedure: P. aeruginosa strain 762 or ATCC 27853 were grown in LB medium at 37° C. until the early logarithmic phase (OD550 0.2). Bacteria were then diluted in PBS to a concentration of 5×10^3 CFU/ml. Stock solutions of sphingolipids (5 mM in 7.5% n-Octyl-β-D-Glucopyranoside (OGP) or in DMSO were prepared by sonication. Sphingolipids were added to the bacteria (0.1-50 μM in 0.075% OGP or 1% DMSO). Bacteria were incubated with sphingolipids for 2 hr at 37° C. and a sample of 200 μl bacteria solution were plated on LB agar plates, incubated overnight at 37° C. and colonies were counted.
The direct effect of sphingosine and other sphingoid long chain bases (LCBs) on the growth of P. aeruginosa was examined in vitro. Bacteria were incubated with a variety of LCBs and the EC50 values on bacterial growth were determined (Table 1).

[2] abbreviates: Pseudomonas aeruginosa, 762, Table 3, Example 3, method of Example 2, n=3 for each analog, given as ranges, read-out: EC50.
Where [3] appears, read: Pseudomonas aeruginosa, P. aeruginosa strain 762, 2 hrs at 37° C. in 0.075% OGP, colonies counted, at least 3 independent experiments, read-out: EC50 (μM) ± S.D.
[4] abbreviates: Pseudomonas aeruginosa, Table 2 non-inhibitors, strain 762, up to 50 μM in 0.075% OGP, 2 hrs at 37° C., read-out: EC50.

Molecules are shown by their SMILES. Entries after “also recorded” stand apart in the source; their conditions may differ. Where two headings read alike, the source gives them in different places. Some results are limits rather than exact numbers.

For `CCCC[C@@H](C)[C@@H](OC(=O)C[C@@H](CC(=O)O)C(=O)O)[C@H](C[C@@H](C)C[C@H](O)CCCC[C@@H](O)C[C@H](O)[C@H](C)N)OC(=O)C[C@@H](CC(=O)O)C(=O)O` (stereo in doubt) [FB1, fumonisin B1, reference compound], in series [1], the “pKa (in PBS)” value was >9^4. This molecule registered an EC50 in the series with P. aeruginosa strain 762 (Pseudomonas aeruginosa, 762) of over 50 µM. Also, the “inhibition of P. aeruginosa growth in vitro (in words)” value (from here on “inhibition of P. aeruginosa growth”) with P. aeruginosa strain 762 is on record as “without effect; also recorded: did not inhibit growth of the bacteria at all”.

`CCCCCCCCCCCCC/C=C/[C@H](O)[C@H](N)CO[C@@H]1O[C@H](CO)[C@H](O)[C@H](O)[C@H]1O` (stereo in doubt) [Galactosyl Sphingosine (Psychosine), Galactosyl D-erythro-sphingosine (psychosine)]: the EC50 with P. aeruginosa strain 762 (setting [2]) is 1 to 5 µM; in the series on P. aeruginosa strain 762 (setting [3]) it was 2.2 ± 1.4 µM.

Take `CCCCCCCCCCCCCCC[C@@H](O)[C@H](N)CO` (stereo in doubt) [L-threo-dihydrosphingosine (Safingol), L-threo-dihydrosphingosine (L-threo-sphinganine)]: the results for the EC50 in the series with P. aeruginosa strain 762 (setting [2]) and with P. aeruginosa strain 762 (setting [3]) were 0.5 to 1 µM and 0.4 µM, respectively. The “inhibition of P. aeruginosa growth” value with P. aeruginosa strain 762 (listed as L-threo-dihydrosphingosine) is listed as “inhibits as well as the natural occurring D-erythro enantiomer”; with P. aeruginosa strain 762 (listed as L-threo-sphinganine) it was “more potent than the neutral ones”.

For the molecule `CCCCCCCCCCCCC/C=C/[C@@H](O)[C@H](N)CO` (stereo in doubt) [L-threo-sphingosine], the figures for the concentration giving a half-maximal response (EC50) in the series with P. aeruginosa strain 762 (setting [2]) and with P. aeruginosa strain 762 (setting [3]) were 0.5 to 1 µM and 0.6 ± 0.2 µM, respectively.

Regarding `CCCCCCCCCCCCC/C=C/[C@H](O)[C@H](N)COP(=O)(O)O` (stereo in doubt) [Sphingosine-1-P, sphingosine-1-phosphate, reference compound], the EC50 in the series with P. aeruginosa strain 762 (setting [2]) and in the series on P. aeruginosa strain 762 (setting [4]) was over 50 µM in each case. Further, the figures for the “inhibition of P. aeruginosa growth” value with P. aeruginosa strain 762 and with P. aeruginosa strain 762 (listed as sphingosine-1-phosphate (S1P)) were “without effect” and “did not inhibit growth of the bacteria at all”, respectively.

In the case of `CCCCCCCCCCCCCCC[C@H](O)[C@@H](C)N` [1-deoxy-D-erythro-dihydrosphingosine], the EC50 with P. aeruginosa strain 762 (setting [3]) is 0.7 µM.

Regarding `CCCCCCCCCCCCC/C=C/[C@H](O)[C@@H](C)N` [1-deoxy-D-erythro-sphingosine], the EC50 in the series on P. aeruginosa strain 762 (setting [3]) came to 0.9 ± 0.1 µM.

With `CCCCCCCCCCCCC/C=C/[C@@H](O)CN` [1-desoxymethyl sphingosine, 1-desoxymethylsphingosine], in the series with P. aeruginosa strain 762 (setting [3]), the EC50 worked out at 0.7 ± 0.1 µM.

As to `CCCCCCCCCCCCC/C=C/C[C@H](N)CO` [3-deoxy-D-erythro-sphingosine], the EC50 in the series on P. aeruginosa strain 762 (setting [3]) was 0.5 µM.

With `CCCCCCCCc1ccc(CC[C@](N)(CO)CCP(=O)(O)O)cc1` [(R)-FTY-phosphonate], the EC50 in the series with P. aeruginosa strain 762 (setting [2]) lay within 5 to 50 µM.

Consider `CCCCCCC/C=C/[C@@H](O)[C@@H](N)CO` [D-erythro-C12-Sphingosine], for which the EC50 in the series with P. aeruginosa strain 762 (setting [4]) was over 50 µM.

On to `CCCCCCCCC/C=C/[C@H](O)[C@H](N)CO` [D-erythro-C14-Sphingosine], for which the EC50 in the series on P. aeruginosa strain 762 (setting [4]) is over 50 µM.

Regarding `CCCCCCCCCCC/C=C/[C@H](O)[C@H](N)CO` [D-erythro-C16-Sphingosine, D-erythro-C16-sphingosine], the EC50 in the series on P. aeruginosa strain 762 (setting [3]) was 1 ± 0.2 µM.

With `CCCCCCCCCCCCCCC/C=C/[C@H](O)[C@H](N)CO` [D-erythro-C20-Sphingosine, D-erythro-C20-sphingosine], the EC50 with P. aeruginosa strain 762 (setting [3]) came to 0.3 µM. Also, the “inhibition of P. aeruginosa growth” value in the series on P. aeruginosa strain 762 is reported as “more potent than C18-sphingosine”.

Regarding `CCCCCCCCCCCCCCC[C@@H](O)[C@@H](N)CO` [D-erythro-dihydrosphingosine, (2S,3R)-2-aminooctadecane-1,3-diol], the EC50 is 0.5 to 1 µM with P. aeruginosa strain 762 (setting [2]) and 0.6 ± 0.5 µM in the series on P. aeruginosa strain 762 (setting [3]).

With `CCCCCCCCCCCCCCC[C@H](O)[C@@H](N)CO` [D-threo-dihydrosphingosine, D-threo-dihydrosphingosine (D-threo-sphinganine)], in the series with P. aeruginosa strain 762 (setting [3]), the EC50 came to 0.5 ± 0.1 µM.

As to `CCCCCCCCCCCCC/C=C/[C@H](O)[C@@H](N)CO` [D-threo-sphingosine], the EC50 in the series on P. aeruginosa strain 762 (setting [3]) turned out to be 0.6 ± 0.1 µM.

`CCCC[C@@H](C)[C@@H](OC(=O)C[C@@H](CC(=O)O)C(=O)O)[C@H](C[C@@H](C)C[C@H](O)CCCC[C@@H](O)C[C@H](O)[C@H](C)N)OC(=O)C[C@@H](CC(=O)O)C(=O)O` [FB1, fumonisin B1, reference compound] displayed an EC50 in the series on P. aeruginosa strain 762 (Pseudomonas aeruginosa, 762, 2 h) of over 50 µM.

Take `CCCCCCCCCCCCCCC[C@@H](O)[C@@H](N)CO` [L-erythro-dihydrosphingosine, L-erythro-dihydrosphingosine (L-erythro-sphinganine)]: in the series with P. aeruginosa strain 762 (setting [3]), the EC50 stood at 0.8 ± 0.1 µM.

Take `CCCCCCCCCCCCC/C=C/[C@@H](O)[C@@H](N)CO` [L-erythro-sphingosine]: the EC50 in the series with P. aeruginosa strain 762 (setting [3]) turned out to be 0.8 ± 0.1 µM.

In the case of `CCCCCCCCCCCCC/C=C/[C@@H](O)[C@H](CO)NC` [Monomethyl D-erythro-Sphingosine, Monomethyl D-erythro-sphingosine], the EC50 with P. aeruginosa strain 762 (setting [3]) was 1.9 ± 0.1 µM.

For the molecule `CCCCCCCCCCCCCCC[C@@H](O)[C@H](CO)NC(C)=O` [N-acetyl-D-erythro-dihydrosphingosine], the EC50 in the series with P. aeruginosa strain 762 (setting [4]) was over 50 µM. In addition, in the series on P. aeruginosa strain 762, the “inhibition of P. aeruginosa growth” value was “reduces the activity”.

Take `CCCCCCCCCCCCCC[C@@H](O)[C@@H](O)[C@@H](N)CO` [Phyto-sphingosine, 4-D-hydroxysphinganine (phytosphingosine)]: in the series on P. aeruginosa strain 762 (setting [3]), the EC50 is 0.9 µM. Further, the “category as bacterial growth inhibitor” value with P. aeruginosa strain 762 (classes by EC50) was “strong inhibitor”.
